pIC50: −log10 of the molar value. Where a name gives a salt, the structure may show the parent alone.
Columns and labels:
Format in all cases: functional, cell-based
B16 = assay: Growth inhibition of mouse B16 cells by MTT method
[1] = Growth inhibition of human MG63 cells by MTT method; details: MG-63
[2] = Growth inhibition of human Saos2 cells by MTT method; details: SAOS-2

Row | pIC50 (B16) | SMILES | pIC50 [1] | pIC50 [2]
1 | 4.83 | CC[C@H](C)[C@H]1O[C@@]2(CCC[C@@H](C/C=C(\C)[C@@H](O)[C@@H](C)/C=C/C=C(\C)c3cc(O)c(C)cc3C(=O)O)O2)C[C@H](O)[C@@H]1C | 5.29 | 5.72
2 | 4.39 | CC[C@H](C)[C@H]1O[C@@]2(CCC[C@@H](C/C=C(\C)[C@@H](O[C@H]3C[C@H](OC)[C@@H](O)[C@H](C)O3)[C@@H](C)/C=C/C=C(\C)c3cc(O)c(C)cc3C(=O)O)O2)C[C@H](O)[C@@H]1C | 5.77 | 6.15
3 | 4.45 | CC[C@H](C)[C@H]1O[C@@]2(C=CC[C@@H](C/C=C(\C)[C@@H](O)[C@@H](C)/C=C/C=C(\C)c3cc(O)c(C)cc3C(=O)O)O2)C=C[C@@H]1C | 5.16 | 5.60
4 | 5.19 | COc1cccc2c1C(=O)c1c(O)c3c(c(O)c1C2=O)C[C@@](O)(C(=O)CO)C[C@@H]3O[C@H]1C[C@H](N)[C@H](O)[C@H](C)O1 [DOXORUBICIN HYDROCHLORIDE] | 5.28 | 5.38

Row | SMILES | pIC50 (B16) | pIC50 [1] | pIC50 [2]
5 | CC[C@H](C)[C@H]1O[C@]2(C=C[C@@H]1C)C[C@@H]1C[C@@H](C/C=C(\C)[C@@H](O[C@H]3C[C@H](OC)[C@@H](O[C@H]4C[C@H](OC)[C@@H](O)[C@H](C)O4)[C@H](C)O3)[C@@H](C)/C=C/C=C3\CO[C@@H]4[C@H](O)C(C)=C[C@@H](C(=O)O1)[C@]34O)O2 [ABAMECTIN COMPONENT B1A] | 4.69 | 5.07 | 4.83
